According to the NIST ThermoML archive (doi:10.1021/je800197t):
Numbers after ± are expanded uncertainties.

Test: xn = mol fraction of the nth substance listed
Conditions: 101 kPa, Liquid

CN1CCOCC1 [N-methylmorpholine] + O
Conditions	mass density [kg/m3]	viscosity [mPa·s]
293.15 K, x1 = 0.0452	1002.38 ± 1	1.898 ± 0.17
293.15 K, x1 = 0.0942	1005.32 ± 1.1	2.577 ± 0.23
293.15 K, x1 = 0.1267	1003.31 ± 1.1	3.048 ± 0.27
293.15 K, x1 = 0.1763	1000.27 ± 1.1	3.562 ± 0.32
293.15 K, x1 = 0.2022	996.93 ± 1.1	3.777 ± 0.33
293.15 K, x1 = 0.2538	991.88 ± 1.2	4.115 ± 0.36
293.15 K, x1 = 0.2843	988.53 ± 1.2	4.238 ± 0.37
293.15 K, x1 = 0.3275	983.61 ± 1.3	4.395 ± 0.38
293.15 K, x1 = 0.3754	977.87 ± 1.4	4.439 ± 0.39
293.15 K, x1 = 0.4033	974.29 ± 1.5	4.429 ± 0.39
293.15 K, x1 = 0.4286	971.29 ± 1.5	4.406 ± 0.39
293.15 K, x1 = 0.4689	966.09 ± 1.6	4.331 ± 0.38
293.15 K, x1 = 0.4983	962.76 ± 1.7	4.241 ± 0.37
293.15 K, x1 = 0.5433	957.25 ± 1.8	4.065 ± 0.36
293.15 K, x1 = 0.5983	950.09 ± 1.9	3.798 ± 0.34
293.15 K, x1 = 0.6438	945.88 ± 2	3.544 ± 0.32
293.15 K, x1 = 0.6942	941.06 ± 2.1	3.187 ± 0.28
293.15 K, x1 = 0.7587	934.53 ± 2.2	2.792 ± 0.25
293.15 K, x1 = 0.8163	929.89 ± 2.4	2.323 ± 0.21
293.15 K, x1 = 0.8869	924.9 ± 2.5	1.791 ± 0.17
293.15 K, x1 = 0.9244	922.59 ± 2.6	1.503 ± 0.14
293.15 K, x1 = 0.9812	919.88 ± 2.6	1.166 ± 0.11
303.15 K, x1 = 0.0452	990.98 ± 1.1	1.594 ± 0.15
303.15 K, x1 = 0.0942	993.65 ± 1.1	2.036 ± 0.19
303.15 K, x1 = 0.1267	991.58 ± 1.1	2.451 ± 0.22
303.15 K, x1 = 0.1763	988.46 ± 1.2	2.922 ± 0.26
303.15 K, x1 = 0.2022	985.14 ± 1.2	3.065 ± 0.27
303.15 K, x1 = 0.2538	980.12 ± 1.3	3.386 ± 0.3
303.15 K, x1 = 0.2843	976.81 ± 1.4	3.497 ± 0.31
303.15 K, x1 = 0.3275	971.96 ± 1.5	3.619 ± 0.32
303.15 K, x1 = 0.3754	966.31 ± 1.6	3.669 ± 0.32
303.15 K, x1 = 0.4033	962.77 ± 1.6	3.636 ± 0.32
303.15 K, x1 = 0.4286	959.83 ± 1.7	3.635 ± 0.32
303.15 K, x1 = 0.4689	954.72 ± 1.8	3.562 ± 0.32
303.15 K, x1 = 0.4983	951.45 ± 1.8	3.521 ± 0.31
303.15 K, x1 = 0.5433	946.05 ± 1.9	3.363 ± 0.3
303.15 K, x1 = 0.5983	939.74 ± 2	3.128 ± 0.28
303.15 K, x1 = 0.6438	934.89 ± 2.1	2.878 ± 0.26
303.15 K, x1 = 0.6942	931.06 ± 2.2	2.588 ± 0.23
303.15 K, x1 = 0.7587	924.36 ± 2.4	2.262 ± 0.21
303.15 K, x1 = 0.8163	920.39 ± 2.5	1.857 ± 0.17
303.15 K, x1 = 0.8869	915.52 ± 2.6	1.489 ± 0.14
303.15 K, x1 = 0.9244	913.29 ± 2.7	1.359 ± 0.13
303.15 K, x1 = 0.9812	910.58 ± 2.8	1.091 ± 0.11
313.15 K, x1 = 0.0452	985.04 ± 1.2	1.327 ± 0.13
313.15 K, x1 = 0.0942	982.32 ± 1.2	1.715 ± 0.16
313.15 K, x1 = 0.1267	980.45 ± 1.3	1.968 ± 0.18
313.15 K, x1 = 0.1763	977.58 ± 1.3	2.348 ± 0.21
313.15 K, x1 = 0.2022	974.42 ± 1.4	2.482 ± 0.23
313.15 K, x1 = 0.2538	969.64 ± 1.4	2.703 ± 0.24
313.15 K, x1 = 0.2843	966.47 ± 1.5	2.838 ± 0.26
313.15 K, x1 = 0.3275	961.8 ± 1.6	2.908 ± 0.26
313.15 K, x1 = 0.3754	956.33 ± 1.7	2.901 ± 0.26
313.15 K, x1 = 0.4033	952.91 ± 1.7	2.869 ± 0.26
313.15 K, x1 = 0.4286	950.06 ± 1.8	2.869 ± 0.26
313.15 K, x1 = 0.4689	945.1 ± 1.9	2.798 ± 0.25
313.15 K, x1 = 0.4983	941.92 ± 1.9	2.758 ± 0.25
313.15 K, x1 = 0.5433	936.67 ± 2	2.602 ± 0.23
313.15 K, x1 = 0.5983	930.57 ± 2.1	2.388 ± 0.22
313.15 K, x1 = 0.6438	925.8 ± 2.2	2.244 ± 0.2
313.15 K, x1 = 0.6942	922.05 ± 2.3	2.031 ± 0.19
313.15 K, x1 = 0.7587	916.24 ± 2.5	1.764 ± 0.16
313.15 K, x1 = 0.8163	912.31 ± 2.5	1.495 ± 0.14
313.15 K, x1 = 0.8869	907.94 ± 2.7	1.222 ± 0.12
313.15 K, x1 = 0.9244	905.91 ± 2.7	1.077 ± 0.11
313.15 K, x1 = 0.9812	903.31 ± 2.8	0.952 ± 0.095
323.15 K, x1 = 0.0452	978.13 ± 1.3	1.119 ± 0.11
323.15 K, x1 = 0.0942	972.37 ± 1.4	1.334 ± 0.13
323.15 K, x1 = 0.1267	968.24 ± 1.4	1.539 ± 0.14
323.15 K, x1 = 0.1763	965.46 ± 1.5	1.761 ± 0.16
323.15 K, x1 = 0.2022	962.36 ± 1.5	1.858 ± 0.17
323.15 K, x1 = 0.2538	957.73 ± 1.6	2.023 ± 0.19
323.15 K, x1 = 0.2843	954.64 ± 1.6	2.113 ± 0.19
323.15 K, x1 = 0.3275	950.07 ± 1.7	2.183 ± 0.2
323.15 K, x1 = 0.3754	944.75 ± 1.8	2.176 ± 0.2
323.15 K, x1 = 0.4033	941.43 ± 1.9	2.143 ± 0.2
323.15 K, x1 = 0.4286	938.65 ± 1.9	2.144 ± 0.2
323.15 K, x1 = 0.4689	933.8 ± 2	2.073 ± 0.19
323.15 K, x1 = 0.4983	930.71 ± 2.1	2.033 ± 0.19
323.15 K, x1 = 0.5433	925.57 ± 2.2	1.948 ± 0.18
323.15 K, x1 = 0.5983	919.96 ± 2.3	1.783 ± 0.17
323.15 K, x1 = 0.6438	916.85 ± 2.3	1.677 ± 0.16
323.15 K, x1 = 0.6942	913.49 ± 2.4	1.536 ± 0.14
323.15 K, x1 = 0.7587	906.16 ± 2.6	1.362 ± 0.13
323.15 K, x1 = 0.8163	902.37 ± 2.7	1.158 ± 0.11
323.15 K, x1 = 0.8869	898.07 ± 2.8	0.954 ± 0.095
323.15 K, x1 = 0.9244	896.15 ± 2.9	0.939 ± 0.094
323.15 K, x1 = 0.9812	894.06 ± 2.9	0.841 ± 0.085
333.15 K, x1 = 0.0452	968.24 ± 1.4	0.708 ± 0.074
333.15 K, x1 = 0.0942	961.01 ± 1.5	0.998 ± 0.099
333.15 K, x1 = 0.1267	955.3 ± 1.6	1.111 ± 0.11
333.15 K, x1 = 0.1763	951.37 ± 1.6	1.251 ± 0.12
333.15 K, x1 = 0.2022	–	1.297 ± 0.12
333.15 K, x1 = 0.2538	942.51 ± 1.8	1.396 ± 0.13
333.15 K, x1 = 0.2843	939.75 ± 1.8	1.425 ± 0.14
333.15 K, x1 = 0.3275	935.6 ± 1.9	1.477 ± 0.14
333.15 K, x1 = 0.3754	930.7 ± 2	1.468 ± 0.14
333.15 K, x1 = 0.4033	927.59 ± 2	1.434 ± 0.14
333.15 K, x1 = 0.4286	925 ± 2.1	1.433 ± 0.14
333.15 K, x1 = 0.4689	920.44 ± 2.2	1.361 ± 0.13
333.15 K, x1 = 0.4983	917.56 ± 2.2	1.319 ± 0.13
333.15 K, x1 = 0.5433	912.67 ± 2.3	1.232 ± 0.12
333.15 K, x1 = 0.5983	907.35 ± 2.4	1.126 ± 0.11
333.15 K, x1 = 0.6438	904.17 ± 2.5	1.033 ± 0.1
333.15 K, x1 = 0.6942	900.9 ± 2.6	0.935 ± 0.093
333.15 K, x1 = 0.7587	894.82 ± 2.7	0.837 ± 0.085
333.15 K, x1 = 0.8163	891.64 ± 2.8	0.809 ± 0.083
333.15 K, x1 = 0.8869	888.89 ± 2.9	0.719 ± 0.075
333.15 K, x1 = 0.9244	886.87 ± 3	0.703 ± 0.073
333.15 K, x1 = 0.9812	884.98 ± 3	0.709 ± 0.074
343.15 K, x1 = 0.0452	962.12 ± 1.5	0.499 ± 0.056
343.15 K, x1 = 0.0942	954.33 ± 1.6	0.564 ± 0.061
343.15 K, x1 = 0.1267	948.38 ± 1.7	0.653 ± 0.069
343.15 K, x1 = 0.1763	944.12 ± 1.7	0.691 ± 0.072
343.15 K, x1 = 0.2022	939.98 ± 1.8	0.704 ± 0.073
343.15 K, x1 = 0.2538	934.96 ± 1.9	0.729 ± 0.075
343.15 K, x1 = 0.2843	932.11 ± 1.9	0.757 ± 0.078
343.15 K, x1 = 0.3275	927.87 ± 2	0.771 ± 0.079
343.15 K, x1 = 0.3754	922.89 ± 2.1	0.793 ± 0.081
343.15 K, x1 = 0.4033	919.76 ± 2.1	0.757 ± 0.078
343.15 K, x1 = 0.4286	917.15 ± 2.2	0.755 ± 0.078
343.15 K, x1 = 0.4689	912.58 ± 2.3	0.773 ± 0.079
343.15 K, x1 = 0.4983	909.69 ± 2.3	0.718 ± 0.075
343.15 K, x1 = 0.5433	904.8 ± 2.4	0.701 ± 0.073
343.15 K, x1 = 0.5983	899.49 ± 2.5	0.661 ± 0.07
343.15 K, x1 = 0.6438	896.3 ± 2.6	0.629 ± 0.067
343.15 K, x1 = 0.6942	893.02 ± 2.7	0.598 ± 0.064
343.15 K, x1 = 0.7587	886.99 ± 2.8	0.569 ± 0.062
343.15 K, x1 = 0.8163	883.81 ± 2.9	0.566 ± 0.062
343.15 K, x1 = 0.8869	881.05 ± 3	0.556 ± 0.061
343.15 K, x1 = 0.9244	879.04 ± 3	0.551 ± 0.06
343.15 K, x1 = 0.9812	877.14 ± 3.1	0.535 ± 0.059
